Experiments:
[1] = Narrow-range pH-stability profiling at 60° C.; type: physicochemical
Procedure: (§1) The drug is monitored at a detection wavelength of 232 nm.
All samples were stored in the dark.
The phosphate buffers were prepared as previously described. […] Measurement of sample pH was done after HPLC analysis.
In order to precisely define the most favorable pH, a stronger stressing condition was needed to generate a greater extent of degradation in the lower pH region. For this study, the incubation condition was shifted from 40° C. to 60° C. […] Since the extent of degradation after fourteen (14) days was still less than twenty percent (20%) in most samples, zero-order rate kinetics was used for the degradation curves (concentration versus time). The calculated rate constant was plotted against pH to provide the narrow-range pH-stability profile.

[2] = Effect of buffer anion on stability, pH 3, 60° C.; type: physicochemical
Procedure: as §1
Tightly sealed glass vials containing the test solutions were placed in an oven at 40° C. or 60° C. All samples were stored in the dark. Aliquots were removed at designated time points for HPLC analysis and pH measurement.
The test buffers included 50 mM sodium phosphate, 50 mM sodium acetate, 50 mM sodium lactate, 50 mM sodium citrate, and 50 mM sodium succinate buffers at pH 3.
The phosphate and acetate buffers were prepared as described above. The citrate buffer was prepared by adding 9.60 g of citric acid to water, adjusting the pH with 2 N NaOH to pH 3, and bringing the volume to 1 L in a volumetric flask. The lactate buffer was prepared by adding 2.25 g of lactic acid to water, adjusting the pH with 2 N NaOH to pH 3, and bringing the volume to 1L in a volumetric flask. The succinate buffer was prepared by adding 2.95 g succinic acid to water, adjusting the pH with 2 N NaOH to pH 3, and bringing the volume to 1 L in a volumetric flask.
Measurements of sample pH were done after HPLC analysis.

[3] = test system: anesthesia by lignocaine admixed with epinephrine; settings: 0.5-1.5 mg, Example 1, Table 1 of the '714 patent; cited from earlier work
[4] = Sodium Phosphate Buffer pH 2.0, 60° C., Day 0
[5] = Sodium Phosphate Buffer pH 2.0, 60° C., Day 2
[6] = Sodium Phosphate Buffer pH 2.0, 60° C., Day 7
[7] = Sodium Phosphate Buffer pH 2.0, 60° C., Day 14
[8] = Sodium Phosphate Buffer pH 2.5, 60° C., Day 0
[9] = Sodium Phosphate Buffer pH 2.5, 60° C., Day 2
[10] = Sodium Phosphate Buffer pH 2.5, 60° C., Day 7
[11] = Sodium Phosphate Buffer pH 2.5, 60° C., Day 14
[12] = Sodium Phosphate Buffer pH 3.0, 60° C., Day 0
[13] = Sodium Phosphate Buffer pH 3.0, 60° C., Day 2
[14] = Sodium Phosphate Buffer pH 3.0, 60° C., Day 7
[15] = Sodium Phosphate Buffer pH 3.0, 60° C., Day 14
[16] = Sodium Phosphate Buffer pH 3.4, 60° C., Day 0
[17] = Sodium Phosphate Buffer pH 3.4, 60° C., Day 2
[18] = Sodium Phosphate Buffer pH 3.4, 60° C., Day 7
[19] = Sodium Phosphate Buffer pH 3.4, 60° C., Day 14
[20] = Sodium Phosphate Buffer pH 4.0, 60° C., Day 0
[21] = Sodium Phosphate Buffer pH 4.0, 60° C., Day 2
[22] = Sodium Phosphate Buffer pH 4.0, 60° C., Day 7
[23] = Sodium Phosphate Buffer pH 4.0, 60° C., Day 14
[24] = 50 mM Acetate (sodium salt) pH 3.0, 60° C., Day 0
[25] = 50 mM Acetate (sodium salt) pH 3.0, 60° C., Day 2
[26] = 50 mM Acetate (sodium salt) pH 3.0, 60° C., Day 7
[27] = 50 mM Acetate (sodium salt) pH 3.0, 60° C., Day 14
[28] = 50 mM Phosphate (sodium salt) pH 3.0, 60° C., Day 0
[29] = 50 mM Phosphate (sodium salt) pH 3.0, 60° C., Day 2
[30] = 50 mM Phosphate (sodium salt) pH 3.0, 60° C., Day 7
[31] = 50 mM Phosphate (sodium salt) pH 3.0, 60° C., Day 14

Cc1ccc(N(CC2=NCCN2)c2cccc(O)c2)cc1 [Phentolamine, phentolamine]
pH at which most stable ([1]; 50 mM sodium phosphate, 60° C., FIG. 2): 3.5 | Phentolamine Concentration [1, 4]: 98 µg/mL | Phentolamine Purity [1, 4]: 100 % peak area | Phentolamine Concentration [1, 5]: 98 µg/mL | Phentolamine Purity [1, 5]: 99 % peak area | Phentolamine Concentration [1, 6]: 93 µg/mL | Phentolamine Purity [1, 6]: 96 % peak area | Phentolamine Concentration [1, 7]: 81 µg/mL | Phentolamine Purity [1, 7]: 92 % peak area | Phentolamine Concentration [1, 8]: 99 µg/mL | Phentolamine Purity [1, 8]: 99 % peak area | Phentolamine Concentration [1, 9]: 96 µg/mL | Phentolamine Purity [1, 9]: 97 % peak area | Phentolamine Concentration [1, 10]: 78 µg/mL | Phentolamine Purity [1, 10]: 92 % peak area | Phentolamine Concentration [1, 11]: 79 µg/mL | Phentolamine Purity [1, 11]: 86 % peak area | Phentolamine Concentration [1, 12]: 96 µg/mL | Phentolamine Purity [1, 12]: 99 % peak area | Phentolamine Concentration [1, 13]: 93 µg/mL | Phentolamine Purity [1, 13]: 97 % peak area | Phentolamine Concentration [1, 14]: 91 µg/mL | Phentolamine Purity [1, 14]: 95 % peak area | Phentolamine Concentration [1, 15]: 84 µg/mL | Phentolamine Purity [1, 15]: 91 % peak area | Phentolamine Concentration [1, 16]: 97 µg/mL | Phentolamine Purity [1, 16]: 99 % peak area | Phentolamine Concentration [1, 17]: 95 µg/mL | Phentolamine Purity [1, 17]: 98 % peak area | Phentolamine Concentration [1, 18]: 96 µg/mL | Phentolamine Purity [1, 18]: 97 % peak area | Phentolamine Concentration [1, 19]: 91 µg/mL | Phentolamine Purity [1, 19]: 94 % peak area | Phentolamine Concentration [1, 20]: 97 µg/mL | Phentolamine Purity [1, 20]: 99 % peak area | Phentolamine Concentration [1, 21]: 95 µg/mL | Phentolamine Purity [1, 21]: 98 % peak area | Phentolamine Concentration [1, 22]: 94 µg/mL | Phentolamine Purity [1, 22]: 97 % peak area | Phentolamine Concentration [1, 23]: 89 µg/mL | Phentolamine Purity [1, 23]: 96 % peak area | Phentolamine Concentration [2, 24]: 96 µg/mL | Phentolamine Purity [2, 24]: 100 % peak area | Phentolamine Concentration [2, 25]: 95 µg/mL | Phentolamine Purity [2, 25]: 98 % peak area | Phentolamine Concentration [2, 26]: 94 µg/mL | Phentolamine Purity [2, 26]: 97 % peak area | Phentolamine Concentration [2, 27]: 89 µg/mL | Phentolamine Purity [2, 27]: 96 % peak area | Phentolamine Concentration ([2]; 50 mM Citrate (sodium salt) pH 3.0, 60° C., Day 0): 93 µg/mL | Phentolamine Concentration ([2]; 50 mM Citrate (sodium salt) pH 3.0, 60° C., Day 2): 87 µg/mL | Phentolamine Concentration ([2]; 50 mM Citrate (sodium salt) pH 3.0, 60° C., Day 7): 73 µg/mL | Phentolamine Concentration ([2]; 50 mM Citrate (sodium salt) pH 3.0, 60° C., Day 14): 62 µg/mL | Phentolamine Concentration ([2]; 50 mM Lactate (sodium salt) pH 3.0, 60° C., Day 0): 97 µg/mL | Phentolamine Concentration ([2]; 50 mM Lactate (sodium salt) pH 3.0, 60° C., Day 2): 94 µg/mL | Phentolamine Concentration ([2]; 50 mM Lactate (sodium salt) pH 3.0, 60° C., Day 7): 91 µg/mL | Phentolamine Concentration ([2]; 50 mM Lactate (sodium salt) pH 3.0, 60° C., Day 14): 83 µg/mL | Phentolamine Concentration [2, 28]: 96 µg/mL | Phentolamine Purity [2, 28]: 99 % peak area | Phentolamine Concentration [2, 29]: 93 µg/mL | Phentolamine Purity [2, 29]: 97 % peak area | Phentolamine Concentration [2, 30]: 91 µg/mL | Phentolamine Purity [2, 30]: 95 % peak area | Phentolamine Concentration [2, 31]: 84 µg/mL | Phentolamine Purity [2, 31]: 91 % peak area | Phentolamine Concentration ([2]; 50 mM Succinate (sodium salt) pH 3.0, 60° C., Day 0): 96 µg/mL | Phentolamine Concentration ([2]; 50 mM Succinate (sodium salt) pH 3.0, 60° C., Day 2): 88 µg/mL | Phentolamine Concentration ([2]; 50 mM Succinate (sodium salt) pH 3.0, 60° C., Day 7): 74 µg/mL | Phentolamine Concentration ([2]; 50 mM Succinate (sodium salt) pH 3.0, 60° C., Day 14): 64 µg/mL | rank of buffer preference based on amount of phentolamine recovered at the end of the study ([2]; pH 3, 60° C., 14 days): sodium acetate>no buffer (water with pH adjusted to pH 3)>sodium phosphate>sodium lactate>sodium succinate>sodium citrate | duration of anesthesia [3]: reduction in the duration of anesthesia with increasing amounts
